Experimental data published in PubChem BioAssay (NCI).
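Results reflect a 48-hour exposure of cells in 96-well plates to compound at five concentrations. TGI denotes the concentration required for complete inhibition of growth.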 Where a SMILES comes first, the peptide text is derived from it. The star is where a group is joined. X36 = O=C(c1ccc(-c2ccc(Cl)cc2Cl)o1)*

Experiments:
Experiment in all cases: inhibition of tumour cell growth, NCI panel, 48 h
SK-MEL-5 melanoma = test system: SK-MEL-5 melanoma
BT-549 breast = test system: BT-549 breast
LOX IMVI melanoma = test system: LOX IMVI melanoma
HL-60(TB) leukemia = test system: HL-60(TB) leukemia
UACC-62 melanoma = test system: UACC-62 melanoma
RPMI-8226 leukemia = test system: RPMI-8226 leukemia
MDA-MB-231 breast = test system: MDA-MB-231 breast
U251 CNS = test system: U251 CNS
DMS 273 small cell lung = test system: DMS 273 small cell lung
LXFL 529 NSCLC = test system: LXFL 529 NSCLC
DLD-1 colon = test system: DLD-1 colon
SNB-78 CNS = test system: SNB-78 CNS

SMILES	TGI (SK-MEL-5 melanoma)	TGI (BT-549 breast)	TGI (LOX IMVI melanoma)	TGI (HL-60(TB) leukemia)	TGI (UACC-62 melanoma)	TGI (RPMI-8226 leukemia)	TGI (MDA-MB-231 breast)	TGI (U251 CNS)	TGI (DMS 273 small cell lung)	TGI (LXFL 529 NSCLC)	TGI (DLD-1 colon)	TGI (SNB-78 CNS)
Cc1ccc2nc(Cl)c(/C=N/N3C(=O)/C(=C/c4ccccc4S)N=C3c3ccccc3)cc2c1	> 100 µM	> 100 µM	> 100 µM	61.6 µM	> 100 µM	68.1 µM	> 100 µM	> 100 µM	–	–	–	–
C=CCCC(=O)CC(O)(C(F)(F)F)C(F)(F)F	> 100 µM	> 100 µM	> 100 µM	> 100 µM	> 100 µM	> 100 µM	> 100 µM	> 100 µM	–	–	–	–
CCC(C)C(NC(=O)CNC(=O)C(Cc1ccccc1)NC(=O)C1CCCN1C(=O)c1ccc(-c2ccc(Cl)cc2Cl)o1)C(=O)OC (stereo not given) (X36-PFGI-OMe; configuration not given here)	45.6 µM	> 100 µM	> 100 µM	> 100 µM	> 100 µM	> 100 µM	> 100 µM	93.5 µM	–	–	–	–
NC1=NS(=O)(=O)Nc2nc(-c3ccc([N+](=O)[O-])cc3)[nH]c21	> 100 µM	–	> 100 µM	> 100 µM	> 100 µM	> 100 µM	–	> 100 µM	> 100 µM	> 100 µM	> 100 µM	–
CC(=O)O[C@H]1C#C/C=C\C#CC[C@@H]2C(=O)N[C@@H]12	> 100 µM	> 86.5 µM	> 50.2 µM	33.5 µM	> 100 µM	> 78.1 µM	> 100 µM	> 100 µM	–	–	–	–
CC(=O)Nc1cc2c(s1)CCC1CC(=O)NN=C21 (stereo not given)	> 100 µM	–	> 100 µM	> 100 µM	> 100 µM	> 100 µM	–	> 100 µM	> 100 µM	> 100 µM	–	> 100 µM
O=C(OCC1OC2OC(c3ccccc3)(n3ccc4c([N+](=O)[O-])ccnc43)OC2C1OC(=O)c1ccccc1)c1ccccc1 (stereo not given)	> 100 µM	> 100 µM	> 100 µM	> 100 µM	> 100 µM	> 100 µM	> 100 µM	> 100 µM	–	–	–	–
CCN1C(=O)C(=C/C=C/c2ccc([N+](=O)[O-])cc2)C(=O)N(CC)C1=S	42.8 µM	32.5 µM	33.2 µM	> 100 µM	34.7 µM	95.8 µM	47 µM	32.4 µM	–	–	–	–
CCC1(C)N=C(c2cnccn2)NN1c1ccc(Cl)cc1 (stereo not given)	> 100 µM	> 100 µM	> 100 µM	> 100 µM	> 100 µM	> 100 µM	> 100 µM	> 100 µM	–	–	–	–
CC(C)C(=O)/C=C/c1ccc(Br)cc1	26.6 µM	–	32.1 µM	41.2 µM	28 µM	39.2 µM	–	22.9 µM	28.7 µM	33.8 µM	20.3 µM	> 100 µM
CC1(CF)SCc2nc3ccccc3n21 (stereo not given)	> 100 µM	> 100 µM	> 100 µM	> 100 µM	> 100 µM	> 100 µM	> 100 µM	> 100 µM	–	–	–	–
Cc1ccc2c(=O)cc(-c3cccs3)[nH]c2n1	> 81.9 µM	> 100 µM	> 100 µM	25.5 µM	> 100 µM	> 49.4 µM	> 100 µM	> 100 µM	–	–	–	–
CC1Cn2c(nc3ccccc32)NC1=O (stereo not given)	> 100 µM	> 100 µM	> 100 µM	> 100 µM	> 100 µM	> 100 µM	> 100 µM	> 100 µM	–	–	–	–
NC1=NS(=O)(=O)Nc2nc(-c3ccc(Cl)cc3)c(-c3ccc(Cl)cc3)nc21	> 100 µM	–	> 100 µM	> 100 µM	> 100 µM	–	–	> 100 µM	> 100 µM	> 100 µM	> 100 µM	> 100 µM
COc1ccc(O)cc1	> 100 µM	–	> 100 µM	> 100 µM	87.1 µM	> 100 µM	–	> 100 µM	–	> 100 µM	> 100 µM	> 100 µM
COc1ccc(/C=N/N=C(\N)NO)c(O)c1	> 10 µM	> 10 µM	> 10 µM	> 10 µM	> 10 µM	> 10 µM	> 10 µM	> 10 µM	–	–	–	–
N#Cc1nc(-c2cccs2)oc1N	> 100 µM	> 100 µM	> 100 µM	> 100 µM	> 100 µM	> 100 µM	> 100 µM	> 100 µM	–	–	–	–
Oc1cc(C2OCCCO2)cc(O)c1O	> 100 µM	–	–	> 100 µM	> 100 µM	> 100 µM	–	> 100 µM	> 100 µM	> 100 µM	> 100 µM	> 100 µM
CCCC(C)NC1=C(NC(C)=O)C(=O)c2ccccc2C1=O (stereo not given)	> 100 µM	–	> 100 µM	> 100 µM	> 100 µM	–	–	> 100 µM	> 100 µM	> 100 µM	> 100 µM	> 100 µM
